Test results published in patent publication US20150359220A1, “COMPOSITIONS COMPRISING GOUGEROTIN AND A FUNGICIDE” (BAYER CROPSCIENCE LP, priority 2013, published 2015).
Counter-ions that a name gives are not always drawn. Like-named read-outs stand apart in the source and are kept apart here.

Experiments:
[1] = tested on: Alternaria solani; test: Alternaria test (tomatoes)/preventive; format: in vivo; details: 3 days after inoculation
[2] = tested on: Septoria tritici; test: Septoria tritici-test (wheat)/preventive; format: in vivo; details: 21 days after inoculation
[3] = tested on: Venturia inaequalis; test: Venturia test (apples)/preventive; details: for Efficacy in % found: 10 days after inoculation
Procedure: After the spray coating has dried on, the plants are inoculated with an aqueous conidia suspension of the causal agent of apple scab (Venturia inaequalis) and then remain for 1 day in an incubation cabinet at approximately 20° C. and a relative atmospheric humidity of 100%. The plants are then placed in a greenhouse at approximately 21° C. and a relative atmospheric humidity of approximately 90%.
The test is evaluated 10 days after the inoculation.

[4] = tested on: Sphaerotheca fuliginea; test: Sphaerotheca test (cucumbers)/preventive; format: in vivo
[5] = tested on: Pyrenophora teres; test: Pyrenophora teres-test (barley)/preventive; format: in vivo; details: 8 days after inoculation
[6] = tested on: Botrytis cinerea; test: Botrytis test (beans)/preventive; details: Table 7, size of lesions 2 days after inoculation
Procedure: After the spray coating has dried on, 2 small pieces of agar covered with growth of Botrytis cinerea are placed on each leaf. The inoculated plants are placed in a darkened chamber at 20° C. and a relative atmospheric humidity of 100%.
2 days after the inoculation, the size of the lesions on the leaves is evaluated.

[7] = tested on: Phytophthora infestans; test: whole plant or invertebrate; format: in vivo; details: for Efficacy in % found: 3 days after inoculation
[8] = tested on: Puccinia triticina; test: Puccinia triticina-test (wheat)/preventive; format: in vivo; details: 8 days after inoculation
[9] = tested on: Blumeria graminis fsp. hordei; test: Blumeria test (barley)/preventive; format: in vivo; details: 7 days after inoculation
[10] = Table 18, 0.5 ppm a.i., 7 days after inoculation
[11] = Venturia inaequalis, 240 h, read-out: Efficacy in % found
[12] = Podosphaera fuliginea, 168 h, Table 20, 100 ppm a.i., 7 days after inoculation, read-out: Efficacy in % found
[13] = Alternaria solani, topical, 72 h, Table 2, 2 ppm a.i., read-out: Efficacy in % found
[14] = Phytophthora infestans, topical, 72 h, read-out: Efficacy in % found
[15] = Podosphaera fuliginea, 168 h, Table 19, 1 ppm a.i., 7 days after inoculation, read-out: Efficacy in % found
[16] = Table 19, 20 ppm a.i., 7 days after inoculation
[17] = Table 18, 100 ppm a.i., 7 days after inoculation

## COC(=O)N(OC)c1ccccc1COc1ccn(-c2ccc(Cl)cc2)n1 [F121, pyraclostrobin]
[1]; Table 3, 2 ppm a.i.
  Efficacy in % found: 41%
[2]; Table 16, 31.25 ppm a.i.
  Efficacy in % found: 75%
[3]; Table 22, 0.5 ppm a.i.
  Efficacy in % found: 0%
[4]; [10]
  Efficacy in % found: 0%
[5]; Table 15, 31.25 ppm a.i.
  Efficacy in % found: 80%

## CC(C)Oc1cccc(NC(=O)c2ccccc2C(F)(F)F)c1 [F71, flutolanil]
[6]; 250 ppm a.i.
  Efficacy in % found: 30%
[3]; [11]
  pest or weed control at 50 ppm: 0%
[4]; [12]
  pest or weed control at 100 ppm: 20%

## CC1COC(Cn2cncn2)(c2ccc(Oc3ccc(Cl)cc3)cc2Cl)O1 (stereo not drawn) [F7, difenoconazole]
[1]; [13]
  pest or weed control at 2 ppm: 30%
[7]; [14]
  pest or weed control at 100 ppm: 0%
[8]; Table 13, 31.25 ppm a.i.
  Efficacy in % found: 30%
[8]; Table 13, 62.5 ppm a.i.
  Efficacy in % found: 60%
[9]; Table 6, 62.5 ppm a.i.
  Efficacy in % found: 44%
[9]; Table 6, 125 ppm a.i.
  Efficacy in % found: 67%
[3]; [11]
  pest or weed control at 1 ppm: 38%
[4]; [15]
  pest or weed control at 1 ppm: 0%

## N#Cc1c[nH]cc1-c1cccc2c1OC(F)(F)O2 [F248, fludioxonil]
[6]; 2.5 ppm a.i.
  Efficacy in % found: 26%
[3]; [11]
  pest or weed control at 50 ppm: 0%
[4]; Podosphaera fuliginea, 168 h, read-out: Efficacy in % found
  pest or weed control at 100 ppm: 30%

## propineb [F180]
[7]; Table 11, 20 ppm a.i.
  Efficacy in % found: 8%
[3]; Table 23, 10 ppm a.i.
  Efficacy in % found: 81%
[4]; [16]
  Efficacy in % found: 0%

## CON=C(C(=O)OC)c1ccccc1CON=C(C)c1cccc(C(F)(F)F)c1 [F126, trifloxystrobin]
[1]; Table 3, 2 ppm a.i.
  Efficacy in % found: 47%
[2]; Table 16, 15.625 ppm a.i.
  Efficacy in % found: 50%
[2]; Table 16, 31.25 ppm a.i.
  Efficacy in % found: 75%
[9]; Table 5, 15.625 ppm a.i.
  Efficacy in % found: 50%
[9]; Table 5, 31.25 ppm a.i.
  Efficacy in % found: 60%
[3]; Table 22, 0.5 ppm a.i.
  Efficacy in % found: 53%
[4]; [10]
  Efficacy in % found: 0%

## Cn1cc(C(=O)Nc2ccccc2-c2cc(F)c(F)c(F)c2)c(C(F)F)n1 [F72, fluxapyroxad]
[1]; Table 2, 0.5 ppm a.i.
  Efficacy in % found: 45%
[7]; Table 9, 100 ppm a.i.
  Efficacy in % found: 0%
[8]; Table 12, 15.625 ppm a.i.
  Efficacy in % found: 22%
[8]; Table 12, 31.25 ppm a.i.
  Efficacy in % found: 22%
[2]; Table 16, 31.25 ppm a.i.
  Efficacy in % found: 13%
[9]; Table 5, 31.25 ppm a.i.
  Efficacy in % found: 0%
[3]; Table 21, 0.25 ppm a.i.
  Efficacy in % found: 0%
[5]; Table 15, 15.625 ppm a.i.
  Efficacy in % found: 80%
[5]; Table 15, 31.25 ppm a.i.
  Efficacy in % found: 90%

## Cc1nn(C)c(F)c1C(=O)Nc1ccccc1C(C)CC(C)C (stereo not drawn) [F84, penflufen]
[7]; Table 9, 100 ppm a.i.
  Efficacy in % found: 8%
[8]; Table 12, 31.25 ppm a.i.
  Efficacy in % found: 67%
[3]; Table 21, 0.5 ppm a.i.
  Efficacy in % found: 0%
[4]; Table 19, 0.5 ppm a.i., 7 days after inoculation
  Efficacy in % found: 0%
[5]; Table 15, 62.5 ppm a.i.
  Efficacy in % found: 70%
[5]; Table 15, 125 ppm a.i.
  Efficacy in % found: 60%

## N#Cc1c(Cl)c(Cl)c(Cl)c(C#N)c1Cl [F155, chlorothalonil]
[7]; [14]
  pest or weed control at 20 ppm: 0%
[2]; Table 17, 125 ppm a.i.
  Efficacy in % found: 57%
[3]; [11]
  pest or weed control at 10 ppm: 4%
[5]; Table 14, 250 ppm a.i.
  Efficacy in % found: 50%

## Cn1c(=O)c2sc3c(=O)n(C)c(=O)c3sc2c1=O [F319, 2,6-dimethyl-1H,5H-[1,4]dithiino[2,3-c:5,6-c′]dipyrrole-1,3,5,7(2H,6H)-tetrone]
[1]; Table 2, 50 ppm a.i.
  Efficacy in % found: 5%
[7]; Table 11, 50 ppm a.i.
  Efficacy in % found: 5%
[3]; Table 23, 25 ppm a.i.
  Efficacy in % found: 38%
[4]; Table 19, 50 ppm a.i., 7 days after inoculation
  Efficacy in % found: 0%

## CCCOC(=O)NCCCN(C)C [F220, propamocarb hydrochloride]
[1]; Alternaria solani, topical, 72 h, Table 4, 250 ppm a.i., read-out: Efficacy in % found
  pest or weed control at 250 ppm: 12%
[7]; [14]
  pest or weed control at 500 ppm: 7%
[3]; [11]
  pest or weed control at 250 ppm: 0%
[4]; Podosphaera fuliginea, 168 h, Table 20, 500 ppm a.i., 7 days after inoculation, read-out: Efficacy in % found
  pest or weed control at 500 ppm: 10%

## CC1(C(=O)Nc2ccc(O)c(Cl)c2Cl)CCCCC1 [F16, fenhexamid]
[1]; Alternaria solani, topical, 72 h, Table 4, 50 ppm a.i., read-out: Efficacy in % found
  pest or weed control at 50 ppm: 50%
[7]; [14]
  pest or weed control at 100 ppm: 0%
[3]; [11]
  pest or weed control at 25 ppm: 0%
[4]; [12]
  pest or weed control at 100 ppm: 0%

## OC(Cc1ccccc1Cl)(Cn1nc[nH]c1=S)C1(Cl)CC1 (stereo not drawn) [F41, prothioconazole]
[1]; [13]
  pest or weed control at 2 ppm: 0%
[7]; [14]
  pest or weed control at 100 ppm: 45%
[3]; [11]
  pest or weed control at 1 ppm: 0%
[4]; [15]
  pest or weed control at 1 ppm: 43%

## fosetyl-aluminium [F281]
[1]; Table 3, 50 ppm a.i.
  Efficacy in % found: 15%
[7]; Table 10, 50 ppm a.i.
  Efficacy in % found: 55%
[3]; Table 22, 50 ppm a.i.
  Efficacy in % found: 0%
[4]; [17]
  Efficacy in % found: 13%

## O=C(NCCc1ncc(C(F)(F)F)cc1Cl)c1ccccc1C(F)(F)F [F70, fluopyram]
[1]; Table 2, 2 ppm a.i.
  Efficacy in % found: 40%
[2]; Table 16, 62.5 ppm a.i.
  Efficacy in % found: 0%
[9]; Table 5, 31.25 ppm a.i.
  Efficacy in % found: 0%
[9]; Table 5, 62.5 ppm a.i.
  Efficacy in % found: 0%
[3]; Table 21, 1 ppm a.i.
  Efficacy in % found: 0%
[4]; Table 19, 1 ppm a.i., 7 days after inoculation
  Efficacy in % found: 0%
[5]; Table 15, 31.25 ppm a.i.
  Efficacy in % found: 60%
[5]; Table 15, 62.5 ppm a.i.
  Efficacy in % found: 80%

## phosphorous acid and its salts [F298]
[7]; Table 10, 500 ppm a.i.
  Efficacy in % found: 76%
[3]; Table 22, 50 ppm a.i.
  Efficacy in % found: 0%

## COCC(=O)N(c1c(C)cccc1C)C(C)C(=O)OC (stereo not drawn) [F241, metalaxyl]
[3]; Table 22, 50 ppm a.i.
  Efficacy in % found: 0%

## mancozeb [F174]
[7]; Table 11, 20 ppm a.i.
  Efficacy in % found: 0%
[3]; Table 23, 10 ppm a.i.
  Efficacy in % found: 0%
[4]; [16]
  Efficacy in % found: 0%

## O=C(NCc1ncc(C(F)(F)F)cc1Cl)c1c(Cl)cccc1Cl [F143, fluopicolide]
[7]; Table 10, 5 ppm a.i.
  Efficacy in % found: 21%
[3]; Table 22, 50 ppm a.i.
  Efficacy in % found: 0%

## C#CCOc1ccc(CCNC(=O)C(OCC#C)c2ccc(Cl)cc2)cc1OC (stereo not drawn) [F206, mandipropamid]
[7]; Table 10, 0.25 ppm a.i.
  Efficacy in % found: 47%
[4]; [17]
  Efficacy in % found: 13%

## CO/C=C(/C(=O)OC)c1ccccc1Oc1cc(Oc2ccccc2C#N)ncn1 [F107, azoxystrobin]
[1]; Table 3, 2 ppm a.i.
  Efficacy in % found: 41%
[8]; Table 12, 7.8125 ppm a.i.
  Efficacy in % found: 67%
[2]; Table 16, 15.625 ppm a.i.
  Efficacy in % found: 13%
[2]; Table 16, 31.25 ppm a.i.
  Efficacy in % found: 50%
[9]; Table 5, 31.25 ppm a.i.
  Efficacy in % found: 10%
[3]; Table 22, 0.5 ppm a.i.
  Efficacy in % found: 84%
[4]; [10]
  Efficacy in % found: 37%
[5]; Table 15, 15.625 ppm a.i.
  Efficacy in % found: 60%
[5]; Table 15, 31.25 ppm a.i.
  Efficacy in % found: 90%

## COCC(=O)N(c1c(C)cccc1C)[C@H](C)C(=O)OC [F242, metalaxyl-M]
[3]; Table 22, 50 ppm a.i.
  Efficacy in % found: 0%
[4]; [17]
  Efficacy in % found: 13%

## CC(C)(C)C(O)(CCc1ccc(Cl)cc1)Cn1cncn1 (stereo not drawn) [F47, tebuconazole]
[1]; [13]
  pest or weed control at 2 ppm: 35%
[7]; [14]
  pest or weed control at 100 ppm: 15%
[8]; Table 13, 31.25 ppm a.i.
  Efficacy in % found: 30%
[8]; Table 13, 62.5 ppm a.i.
  Efficacy in % found: 60%
[2]; Table 17, 125 ppm a.i.
  Efficacy in % found: 57%
[9]; Table 6, 31.25 ppm a.i.
  Efficacy in % found: 78%
[3]; [11]
  pest or weed control at 1 ppm: 0%

## CSC1=N[C@@](C)(c2ccccc2)C(=O)N1Nc1ccccc1 [F114, fenamidone]
[1]; Alternaria solani, topical, 72 h, Table 3, 50 ppm a.i., read-out: Efficacy in % found
  pest or weed control at 50 ppm: 62%
[7]; [14]
  pest or weed control at 1 ppm: 41%
[3]; [11]
  pest or weed control at 50 ppm: 0%
[4]; Podosphaera fuliginea, 168 h, Table 18, 100 ppm a.i., 7 days after inoculation, read-out: Efficacy in % found
  pest or weed control at 100 ppm: 21%
